Here are results for eleven compounds from patent US5374541A, “Combined use of β-galactosidase and sialyltransferase coupled with in situ regeneration of CMP-sialic acid for one pot synthesis of oligosaccharides” (priority 1993, dated 1994).

Broadly, the Km is the concentration of substrate that gives half-maximal velocity.

“Also recorded” adds a separate entry of the source. Where two headings read alike, the source gives them in different places.

For data set [1] the following is noted: aqueous buffers as are used here; cited from earlier work.
The target of data set [2] is T1, α(2,6)sialyltransferase (EC 2.4.99.1) (Bos taurus, UniProt O18974).
T1 construct: literature kinetics (Beyer, Paulson) and synthesis tests
T1 sequence (O18974 1-405): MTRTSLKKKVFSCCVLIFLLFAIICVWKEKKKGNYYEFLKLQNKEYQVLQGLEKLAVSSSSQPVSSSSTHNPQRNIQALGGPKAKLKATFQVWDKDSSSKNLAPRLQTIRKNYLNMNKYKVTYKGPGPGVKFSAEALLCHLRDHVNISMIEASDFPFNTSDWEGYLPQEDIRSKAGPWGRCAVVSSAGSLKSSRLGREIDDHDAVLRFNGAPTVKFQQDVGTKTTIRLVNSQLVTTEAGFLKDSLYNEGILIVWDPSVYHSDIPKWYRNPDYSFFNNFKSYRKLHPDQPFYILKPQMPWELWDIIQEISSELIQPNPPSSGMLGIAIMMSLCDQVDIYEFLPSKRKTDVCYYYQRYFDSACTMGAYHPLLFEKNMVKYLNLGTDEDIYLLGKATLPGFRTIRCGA
Briefly: Sialylation of prepared galactosyl glycosides by the sialyltransferase. The format is biochemical, bovine. The conditions noted are these: one pot reaction, result in words. On the procedure:
A representative synthesis of Neu5Acα(2,6)-LacNAc (Compound 1) is discussed below. To a 1.07 mL HEPES buffer (0.2M, 20 mM MgCl2, 5.3 mM MnCl2, 20 mM KCl, pH 7.5) containing 12.3 mg Neu5Ac (20 mM; provided by Dr. U. Kragl, Research Center, Julich, Germany), 180 mg Lac (250 mM), 265 mg GlcNAc (600 mM), 30.2 mg PEP (trisodium salt, 40 mM), CMP (2 mM) and ATP (0.2 mM) were added myokinase (MK, EC 2.7.4.3; 6 U), pyruvate kinase (PK, EC 2.7.1.40; 80 U), inorganic pyrophosphatase (PPase, EC 3.6.1.1; 4 U), CMP-Neu5Ac synthetase (EC 2.7.43; 0.32 U), α(2,6)sialyltransferase (EC 2.4.99.1; 0,052 U) and 1 mg of crude β-galactosidase (EC 3.2.1.23) from Bacillus Circulans (provided by Daiwa Kasei KK, Osaka, Japan). The total volume was adjusted to 2 mL.
In a similar manner, the sialylated saccharide (Compound 2) was also prepared. […] Compound 10 was prepared as follows.

For data set [3], the target named is T2, α(2,6)sialyltransferase, rat liver (Rattus norvegicus, UniProt P13721).
T2 sequence (P13721 1-403): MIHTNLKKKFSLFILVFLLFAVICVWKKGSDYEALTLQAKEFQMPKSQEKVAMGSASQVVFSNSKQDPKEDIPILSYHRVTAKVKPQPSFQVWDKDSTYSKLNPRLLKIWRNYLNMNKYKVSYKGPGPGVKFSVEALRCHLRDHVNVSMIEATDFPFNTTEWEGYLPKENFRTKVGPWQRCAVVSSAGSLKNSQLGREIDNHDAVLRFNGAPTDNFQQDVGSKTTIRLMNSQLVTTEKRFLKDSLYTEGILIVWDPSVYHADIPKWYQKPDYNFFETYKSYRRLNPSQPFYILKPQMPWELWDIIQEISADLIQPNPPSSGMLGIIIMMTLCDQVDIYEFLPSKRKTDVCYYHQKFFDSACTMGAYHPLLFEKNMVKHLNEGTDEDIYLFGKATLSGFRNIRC
Briefly: Km and Vmax of acceptor molecules for rat liver α(2,6)sialyltransferase. The format is biochemical. The following applies: Table 1, footnoted values approximated from Weinstein et al.
Source text: Km is the Michaelis constant in units of moles/liter. Vmax is the reaction velocity at a constant concentration of enzyme, and is in units of enzyme units/milligram, one enzyme unit being that amount of enzyme that will catalyze the transformation of one micromole of substrate per minute under optimal conditions. The value of Km /Vmax is the slope of the line obtained from a Lineweaver-Burk plot.
Values for Km and Vmax for several galactosyl glycosides are available in the published literature and can be obtained using well known enzymatic techniques.

Data set [4] addresses T2, α(2,6)sialyltransferase, rat liver. The following applies: cited from earlier work; for substrate quality / sialylated product formation: Table 1 footnotes 4 and 5, rat liver α(2,6)sialyltransferase, Weinstein et al.
Data set [5] addresses T3, α(2,3)sialyltransferase (EC 2.4.99.4) (Sus scrofa, UniProt Q02745).
T3 sequence (Q02745 1-343): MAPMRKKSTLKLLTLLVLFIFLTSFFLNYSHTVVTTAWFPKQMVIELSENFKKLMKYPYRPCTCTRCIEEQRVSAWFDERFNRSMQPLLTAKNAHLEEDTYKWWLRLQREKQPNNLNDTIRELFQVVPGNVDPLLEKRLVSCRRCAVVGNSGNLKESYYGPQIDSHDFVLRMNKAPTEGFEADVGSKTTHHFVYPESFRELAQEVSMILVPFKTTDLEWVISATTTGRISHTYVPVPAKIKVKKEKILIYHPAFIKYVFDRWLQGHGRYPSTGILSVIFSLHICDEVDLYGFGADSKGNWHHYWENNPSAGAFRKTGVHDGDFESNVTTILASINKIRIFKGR
The following applies: Table 1; cited from earlier work.

Data set [6] addresses T4, α(2,3)sialyltransferase (EC 2.4.99.6) (Rattus norvegicus, UniProt Q02734).
T4 sequence (Q02734 1-374): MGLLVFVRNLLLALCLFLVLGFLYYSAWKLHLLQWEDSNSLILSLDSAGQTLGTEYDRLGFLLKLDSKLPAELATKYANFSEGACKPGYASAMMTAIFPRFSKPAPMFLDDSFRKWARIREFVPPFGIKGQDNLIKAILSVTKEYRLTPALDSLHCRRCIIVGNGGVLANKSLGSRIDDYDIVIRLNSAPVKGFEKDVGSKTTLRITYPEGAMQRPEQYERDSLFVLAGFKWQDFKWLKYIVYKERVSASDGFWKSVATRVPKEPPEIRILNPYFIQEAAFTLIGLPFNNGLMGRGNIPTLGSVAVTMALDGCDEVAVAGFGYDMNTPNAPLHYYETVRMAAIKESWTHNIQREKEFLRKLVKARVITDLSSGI
The conditions noted are these: Table 1; cited from earlier work.

Data set [7] has as its target T1, α(2,6)sialyltransferase (EC 2.4.99.1). The conditions noted are these: cited from earlier work.
The subject of data set [8] is B. circulans β-galactosidase (EC 3.2.1.23). Briefly: Relative rates of galactoside substrates with B. circulans β-galactosidase. Type of data set: biochemical, Bacillus circulans. The following applies: Lac = 100. From the text:
That β-galactosidase accepts the following substrates with the indicated, parenthesized relative rates: Lac (100), o-nitrophenyl β-galactoside (10.6), methyl β-galactoside (1).

Where [9] appears, read: Table 1, α(2,6)sialyltransferase, rat liver.
Where [10] appears, read: Table 1, α(2,6)sialyltransferase EC 2.4.99.1.
The mark [11] stands for this setting: α(2,6)sialyltransferase, Paulson et al.

On to `CC(=O)NC1C(O)CC(OP(=O)(O)OCC2OC(n3ccc(N)nc3=O)C(O)C2O)(C(=O)O)OC1C(O)C(O)CO` (stereo not shown) [CMP-sialic acid], for which the half-life entry in data set [1] is given as “only a few hours”.
Turning to `OC[C@H]1O[C@@H](O[C@H]2[C@H](O)[C@@H](O)C(O)S[C@@H]2CO)[C@H](O)[C@@H](O)[C@H]1O` (stereo partly shown) [Compound 3, Galβ1→4(5-thio)Glc], the “substrate for the sialyltransferase / sialylated in the reaction” value in data set [2] is “not a substrate; also recorded: not sialylated”.
On the same count and under the same terms, then `[N-]=[N+]=N[C@H]1C(O)O[C@H](CO)[C@@H](O[C@@H]2O[C@H](CO)[C@H](O)[C@H](O)[C@H]2O)[C@@H]1O` (stereo partly shown) [Compound 4, Galβ1→4(2-N3)Glc], with “very weak substrate; also recorded: sialylated, but poorly”.
Take `CC(=O)N[C@H]1C(O)O[C@H](CO)[C@H](O)[C@@H]1O[C@@H]1O[C@H](CO)[C@H](O)[C@H](O)[C@H]1O` (stereo partly shown) [Galβ1→3GalNAc]: in data set [3], the Km/Vmax result was “very large”. Also, in data set [4], the “substrate quality / sialylated product formation” value is “No sialylated product was reported to be formed”. Further, in data set [5], the Km was 0.21 mM and the Vmax is 8.9 units/mg.
As to `CC(=O)N[C@H]1C(O)O[C@H](CO)[C@@H](O)[C@@H]1O[C@@H]1O[C@H](CO)[C@H](O)[C@H](O)[C@H]1O` (stereo partly shown) [Galβ1→3GlcNAc], in data set [4], the “substrate quality / sialylated product formation” value is “poor substrate”. Moreover, in data set [5], the Km was 65 mM and the Vmax is listed as 4.4 units/mg. Moreover, the Vmax in data set [6] is given as 1.16 units/mg.
With `CC(=O)N[C@H]1C(O)O[C@H](CO)[C@@H](O[C@@H]2O[C@H](CO)[C@H](O)[C@H](O)[C@H]2O)[C@@H]1O` (stereo partly shown) [Galβ1→4GlcNAc], the Vmax in data set [4] (setting [9]) is reported as 0.93 units/mg; in data set [7] (setting [10]) it was 1 units/mg; in data set [7] (setting [11]) it was 1.00; in data set [5] it was 0.11 units/mg; in data set [6], 0.75 units/mg. The Km in data set [4] (Table 1, α(2,6)sialyltransferase, rat liver, from Weinstein et al.) is 1.62 mM; in data set [5] it was 42 mM.
With `OC[C@H]1O[C@@H](O[C@H]2[C@H](O)[C@@H](O)C(O)O[C@@H]2CO)[C@H](O)[C@@H](O)[C@H]1O` (stereo partly shown) [Galβ1→4Glc], the Vmax in data set [4] (setting [9]) is 0.30 units/mg; in data set [7] (setting [10]), 1.02 units/mg; in data set [7] (setting [11]), 1.02; in data set [5], 0.62 units/mg; in data set [6], 0.91 units/mg. The “relative rate as substrate” value in data set [8] stood at 100. For the same compound, the Km in data set [6] is 9.4 mM.
On to `CC(=O)N[C@H]1C(O)O[C@H](CO[C@@H]2O[C@H](CO)[C@H](O)[C@H](O)[C@H]2O)[C@@H](O)[C@@H]1O` (stereo partly shown) [Galβ1→6GlcNAc], for which the Vmax is on record as 0.03 units/mg in data set [7] (setting [10]); 0.03 in data set [7] (setting [11]); 3% in data set [7] (α(2,6)sialyltransferase, low Vmax); 0.24 units/mg in data set [5]. For the same compound, the Km in data set [5] was 29 mM.
As for `CC(=O)N[C@H]1[C@H](O[C@H]2[C@@H](O)[C@@H](CO)O[C@@H](O[C@H]3[C@H](O)[C@@H](O)C(O)O[C@@H]3CO)[C@@H]2O)O[C@H](CO)[C@@H](O)[C@@H]1O[C@@H]1O[C@H](CO)[C@H](O)[C@H](O)[C@H]1O` (stereo partly shown) [lacto-N-tetraose, Galβ1→3GlcNAcβ1→3Galβ1→4Glc], the Vmax in data set [5] is given as 3.6 units/mg; in data set [6], 1.00 units/mg.
Regarding `CO[C@@H]1O[C@H](CO)[C@H](O)[C@H](O)[C@H]1O` [methyl β-galactoside], the “relative rate as substrate” value in data set [8] is listed as 1.
As to `O=[N+]([O-])c1ccccc1O[C@@H]1O[C@H](CO)[C@H](O)[C@H](O)[C@H]1O` [o-nitrophenyl β-galactoside], the “relative rate as substrate” value in data set [8] is reported as 10.6.
